Measured values published in paper PMC4416922, “Measurement of Inositol 1,4,5-Trisphosphate in Living Cells Using an Improved Set of Resonance Energy Transfer-Based Biosensors” (PLoS ONE, 2015).

Tests used:
Assay in all cases: [3H]InsP3 radioligand displacement on purified recombinant protein, Scatchard analysis
[1] = molecular target: T1, human type-I InsP 3 receptor ligand binding domain (InsP3R-LBD) (Homo sapiens, UniProt Q14643, R568K)
T1 construct: gene ITPR1; residues 224-605, mRFP- and 6xHis-tagged

[2] = molecular target: T2, human type-I InsP 3 receptor ligand binding domain (InsP3R-LBD) (Homo sapiens, UniProt Q14643, R265K)
T2 construct: gene ITPR1; residues 224-605, mRFP- and 6xHis-tagged

[3] = molecular target: T3, human type-I InsP 3 receptor ligand binding domain (InsP3R-LBD) (Homo sapiens, UniProt Q14643, R269K)
T3 construct: gene ITPR1; residues 224-605, mRFP- and 6xHis-tagged

[4] = molecular target: T4, human type-I InsP 3 receptor ligand binding domain (InsP3R-LBD) (Homo sapiens, UniProt Q14643)
T4 construct: gene ITPR1; residues 224-605, mRFP- and 6xHis-tagged
T4 sequence (Q14643 224-605): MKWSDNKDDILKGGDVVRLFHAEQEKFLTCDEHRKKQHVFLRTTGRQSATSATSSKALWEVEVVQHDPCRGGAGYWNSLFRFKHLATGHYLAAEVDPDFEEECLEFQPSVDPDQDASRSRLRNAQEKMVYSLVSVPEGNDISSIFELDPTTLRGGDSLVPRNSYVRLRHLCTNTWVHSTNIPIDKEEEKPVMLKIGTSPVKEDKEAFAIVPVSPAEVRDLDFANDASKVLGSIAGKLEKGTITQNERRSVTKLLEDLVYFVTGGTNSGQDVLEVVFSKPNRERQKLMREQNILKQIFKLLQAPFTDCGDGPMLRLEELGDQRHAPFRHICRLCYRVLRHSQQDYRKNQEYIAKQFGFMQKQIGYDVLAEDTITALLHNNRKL

T1 sequence (Q14643 224-605 R568K): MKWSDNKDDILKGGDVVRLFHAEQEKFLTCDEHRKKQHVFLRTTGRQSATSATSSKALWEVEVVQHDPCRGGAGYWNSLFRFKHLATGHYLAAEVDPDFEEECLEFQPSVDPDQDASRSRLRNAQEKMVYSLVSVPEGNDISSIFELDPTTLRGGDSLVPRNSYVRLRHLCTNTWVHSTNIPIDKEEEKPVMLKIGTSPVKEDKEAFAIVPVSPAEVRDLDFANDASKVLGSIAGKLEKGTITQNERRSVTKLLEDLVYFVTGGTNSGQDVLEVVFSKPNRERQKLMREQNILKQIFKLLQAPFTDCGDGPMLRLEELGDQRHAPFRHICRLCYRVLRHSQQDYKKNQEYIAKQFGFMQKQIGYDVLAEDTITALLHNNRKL
T3 sequence (Q14643 224-605 R269K): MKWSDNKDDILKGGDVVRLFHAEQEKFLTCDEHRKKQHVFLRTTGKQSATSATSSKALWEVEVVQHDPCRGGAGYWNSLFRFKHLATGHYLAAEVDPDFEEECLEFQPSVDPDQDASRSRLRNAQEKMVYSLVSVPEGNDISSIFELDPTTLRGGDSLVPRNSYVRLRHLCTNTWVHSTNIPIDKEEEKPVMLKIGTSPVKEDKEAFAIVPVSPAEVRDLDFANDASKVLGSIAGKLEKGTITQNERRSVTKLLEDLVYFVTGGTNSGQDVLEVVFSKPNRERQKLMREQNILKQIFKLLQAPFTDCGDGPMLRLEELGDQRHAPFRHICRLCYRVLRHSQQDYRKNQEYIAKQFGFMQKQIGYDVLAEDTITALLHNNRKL
T2 sequence (Q14643 224-605 R265K): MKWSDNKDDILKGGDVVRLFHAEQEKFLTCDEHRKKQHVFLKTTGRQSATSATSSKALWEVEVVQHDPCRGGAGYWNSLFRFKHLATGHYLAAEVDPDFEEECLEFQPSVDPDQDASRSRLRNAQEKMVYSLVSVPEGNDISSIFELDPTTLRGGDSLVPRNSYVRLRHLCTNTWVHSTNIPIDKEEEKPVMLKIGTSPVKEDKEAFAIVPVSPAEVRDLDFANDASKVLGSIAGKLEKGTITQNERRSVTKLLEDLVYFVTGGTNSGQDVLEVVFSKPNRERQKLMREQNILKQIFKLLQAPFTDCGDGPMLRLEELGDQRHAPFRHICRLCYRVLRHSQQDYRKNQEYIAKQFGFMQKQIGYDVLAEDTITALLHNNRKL

O=P(O)(O)O[C@@H]1[C@H](O)[C@H](O)[C@@H](OP(=O)(O)O)[C@H](OP(=O)(O)O)[C@H]1O [InsP 3]
Kd [1]: 5.3 nM | Kd [2]: 6.06 nM | Kd [3]: 10.1 nM | Kd [4]: 3.04 nM
